Laboratory results published in US20240246940A1, “HETEROARYL DERIVATIVE COMPOUND AND USE THEREOF” (VORONOI INC., priority 2021, published 2024).

Columns and labels:
Assay type in all cases: cell-based
[1] = tested on: SK-BR-3 cells (HER2 overexpressing cell line); assay: SK-BR-3 cell proliferation inhibitory activity (CellTiter-Glo, 120 hours); settings: Homo sapiens
Procedure, shortened: (§1)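 GI50 values derive from luminescence-based live-cell counts, expressed relative to control growth. Final compound ranges were 0.2 nM–10 μM for the two breast lines, […]–5 μM in N-87 and 0.8 nM–45 μM in HaCaT. Tests were run three times.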

[2] = tested on: BT-474 cells (HER2 overexpressing cell line); assay: BT-474 cell proliferation inhibitory activity (CellTiter-Glo, 120 hours); settings: Homo sapiens
Procedure, shortened: as §1

[3] = tested on: N-87 cells (HER2 overexpressing cell line); assay: N-87 cell proliferation inhibitory activity (CellTiter-Glo, 72 hours)
Method: To evaluate the cell proliferation inhibitory activity of the compound according to the present invention on HER2 and EGFR kinases, the following method was performed using HER2 overexpressing cell lines (SK-BR-3, BT-474, and N-87) and EGFR expressing cell line (HaCaT).
McCOY'S 5A supplemented with 10% FBS was used for SK-BR-3 cells, RPMI-1640 medium supplemented with 20% FBS was used for BT-474 cancer cells, and RPMI-1640 medium supplemented with 10% FBS was used for N-87 cancer cells. DMEM supplemented with 10% FBS was used for HaCaT cells.
For SK-BR-3 cells, 5000 cells were aliquoted into each well of a white clear bottom 96 well plate (Corning) 48 hours before treatment with the compounds of Examples. For BT-474 cells, 5000 cells were aliquoted into each well of a white clear bottom 96 well plate (Corning) 48 hours before treatment with the compounds of Examples. For N-87 cells, 5000 cells were aliquoted into each well of a white clear bottom 96 well plate (Corning) 24 hours before treatment with the compounds of Examples. For HaCaT cells, 3000 cells were aliquoted into each well of a white clear bottom 96 well plate (Corning) 24 hours before treatment with the compounds of Examples. For SK-BR-3 cells and BT-474 cells, the compounds of Examples were diluted in dimethyl sulfoxide (three-fold dilution, a total of 11 concentrations) and injected each in an amount of 1 μl to a final concentration of 0.2 nM to 10 μM. For N-87 cells, the compounds of Examples were diluted in dimethyl sulfoxide (five-fold dilution, a total of 11 concentrations) and injected each in an amount of 0.5 μl to a final concentration of […] to 5 μM. For HaCaT cells, the compounds of Examples were diluted in dimethyl sulfoxide (three-fold dilution, a total of 11 concentrations) and injected each in an amount of 0.5 μl to a final concentration of 0.8 nM to 45 μM. For the measurement of living cells, the cells were stored at room temperature for 10 minutes using CellTiter-Glo cell viability reagent (Promega) after a certain period of time (SK-BR-3: 120 hours, BT-474: 120 hours, N-87: 72 hours, and HaCaT: 72 hours) post treatment with the compounds of Examples, and the luminescence intensity thereof was measured using a reader (SynergyNeo, Biotek). Each test was repeated three times.
The result values were calculated as a cell growth rate (%) compared to those of the control group. A graph was created using the GraphPad Prism version 5.0 program, and GI50 values were calculated.

[4] = tested on: HaCaT cells (EGFR expressing cell line); assay: HaCaT cell proliferation inhibitory activity (CellTiter-Glo, 72 hours); settings: Homo sapiens
Procedure, shortened: as §1

Row | GI50 [1] [nM] | GI50 [2] [nM] | SMILES | GI50 [3] [nM] | GI50 [4] [nM]
1 | ≤ 150 | ≤ 150 | C=CC(=O)N1CC[C@@H](Oc2cc3c(Nc4cc(-c5ccc(F)cc5F)ccc4OC)ncnc3cc2OC)[C@H](F)C1 (relative stereo) [Example 171, 1-(trans-4-((4-((2′,4′-difluoro-4-methoxy-[1,1′-biphenyl]-3-yl)amino)-7-methoxy-quinazolin-6-yl)oxy)-3-fluoropiperidin-1-yl)prop-2-en-1-one] | ≤ 150 | ≤ 150
2 |  | ≤ 150 | C=CC(=O)N1CCC(Oc2cc3c(Nc4cc(-c5ccc(F)c(N6CC(F)(F)C6)c5)ccc4OC)ncnc3cc2OC)CC1 [Example 129, 1-(4-((4-((3′-(3,3-difluoroazetidin-1-yl)-4′-fluoro-4-methoxy-[1,1′-biphenyl]-3-yl)amino)-7-methoxy-quinazolin-6-yl)oxy)piperidin-1-yl)prop-2-en-1-one] | ≤ 150 | 150 to 1000
3 |  | ≤ 150 | C=CC(=O)N1CC[C@H](Oc2cc3c(Nc4cc(-c5ccco5)ccc4OC)ncnc3cc2OC)[C@H](F)C1 [Example 154, 1-((3R,4S)-3-fluoro-4-((4-((5-(furan-2-yl)-2-methoxy-phenyl)amino)-7-methoxy-quinazolin-6-yl)oxy)piperidin-1-yl)prop-2-en-1-one] | ≤ 150 | ≤ 150
4 |  | ≤ 150 | C=CC(=O)N1CCC(Oc2cc3c(Nc4cc(-c5ccc(F)c(N(C)C)c5F)ccc4OC)ncnc3cc2OC)CC1 [Example 155, 1-(4-((4-((3′-(dimethylamino)-2′,4′-difluoro-4-methoxy-[1,1′-biphenyl]-3-yl)amino)-7-methoxy-quinazolin-6-yl)oxy)piperidin-1-yl)prop-2-en-1-one] | ≤ 150 | ≤ 150
5 |  | ≤ 150 | C=CC(=O)N1CCC(Oc2cc3c(Nc4cc(-c5ccc(F)c(N)c5F)ccc4OC)ncnc3cc2OC)CC1 [Example 158, 1-(4-((4-((3′-amino-2′,4′-difluoro-4-methoxy-[1,1′-biphenyl]-3-yl)amino)-7-methoxy-quinazolin-6-yl)oxy)piperidin-1-yl)prop-2-en-1-one] | ≤ 150 | ≤ 150
6 |  | ≤ 150 | C=CC(=O)N1CCC(Oc2cc3c(Nc4cc(-c5ccc(F)c(N6CCC6)c5)ccc4OC)ncnc3cc2OC)CC1 [Example 159, 1-(4-((4-((3′-(azetidin-1-yl)-4′-fluoro-4-methoxy-[1,1′-biphenyl]-3-yl)amino)-7-methoxy-quinazolin-6-yl)oxy)piperidin-1-yl)prop-2-en-1-one] | ≤ 150 | 150 to 1000
7 |  | ≤ 150 | C=CC(=O)N1CCC(Oc2cc3c(Nc4cc(-c5ccc(F)c(O)c5)ccc4OC)ncnc3cc2OC)CC1 [Example 168, 1-(4-((4-((4′-fluoro-3′-hydroxy-4-methoxy-[1,1′-biphenyl]-3-yl)amino)-7-methoxy-quinazolin-6-yl)oxy)piperidin-1-yl)prop-2-en-1-one] | ≤ 150 | 150 to 1000
8 |  | ≤ 150 | C=CC(=O)N1CCC(Oc2cc3c(Nc4cc(-c5cc(N)c(F)cc5F)ccc4OC)ncnc3cc2OC)CC1 [Example 170, 1-(4-((4-((5′-amino-2′,4′-difluoro-4-methoxy-[1,1′-biphenyl]-3-yl)amino)-7-methoxy-quinazolin-6-yl)oxy)piperidin-1-yl)prop-2-en-1-one] | ≤ 150 | ≤ 150
9 |  | ≤ 150 | C=CC(=O)N1CC[C@@H](Oc2cc3c(Nc4cc(-c5ccco5)ccc4OC)ncnc3cc2OC)[C@H](F)C1 [Example 173, 1-((3R,4R)-3-fluoro-4-((4-((5-(furan-2-yl)-2-methoxyphenyl)amino)-7-methoxy-quinazolin-6-yl)oxy)piperidin-1-yl)prop-2-en-1-one] | ≤ 150 | ≤ 150
10 |  | ≤ 150 | C=CC(=O)N1CCC(Oc2cc3c(Nc4cc(-c5scc6c5OCCO6)ccc4OC)ncnc3cc2OC)CC1 [Example 176, 1-(4-((4-((5-(2,3-dihydrothieno [3,4-b][1,4]dioxin-5-yl)-2-methoxyphenyl)amino)-7-methoxy-quinazolin-6-yl)oxy)piperidin-1-yl)prop-2-en-1-one] | ≤ 150 | ≤ 150
11 |  | ≤ 150 | C=CC(=O)N1CC[C@@H](Oc2cc3c(Nc4cc(-c5ccc(F)cc5F)ccc4OC)ncnc3cc2OC)[C@@H](F)C1 [Example 189, 1-((3S,4R)-4-((4-((2′,4′-difluoro-4-methoxy-[1,1′-biphenyl]-3-yl)amino)-7-methoxy-quinazolin-6-yl)oxy)-3-fluoropiperidin-1-yl)prop-2-en-1-one] | ≤ 150 | ≤ 150
12 |  | ≤ 150 | C=CC(=O)N1CCC(Oc2cc3c(Nc4cc(-c5c(F)cc(F)cc5F)ccc4OC)ncnc3cc2OC)CC1 [Example 190, 1-(4-((7-methoxy-4-((2′,4′,6′-trifluoro-4-methoxy-[1,1′-biphenyl]-3-yl)amino)quinazolin-6-yl)oxy)piperidin-1-yl)prop-2-en-1-one] | ≤ 150 | ≤ 150
13 |  | ≤ 150 | C=CC(=O)N1CCC(Oc2cc3c(Nc4cc(-c5ccc(F)cc5Cl)ccc4OC)ncnc3cc2OC)CC1 [Example 191, 1-(4-((4-((2′-chloro-4′-fluoro-4-methoxy-[1,1′-biphenyl]-3-yl)amino)-7-methoxy-quinazolin-6-yl)oxy)piperidin-1-yl)prop-2-en-1-one] | ≤ 150 | ≤ 150
14 |  | ≤ 150 | C=CC(=O)N1CCC(Oc2cc3c(Nc4cc(-c5cc(C(F)(F)F)ccc5F)ccc4OC)ncnc3cc2OC)CC1 [Example 192, 1-(4-((4-((2′-fluoro-4-methoxy-5′-(trifluoromethyl)-[1,1′-biphenyl]-3-yl)amino)-7-methoxy-quinazolin-6-yl)oxy)piperidin-1-yl)prop-2-en-1-one] | ≤ 150 | ≤ 150
15 |  | ≤ 150 | C=CC(=O)N1CCC(Oc2cc3c(Nc4cc(-c5cccc(C=C)c5)ccc4OC)ncnc3cc2OC)CC1 [Example 215, 1-(4-((7-methoxy-4-((4-methoxy-3′-vinyl-[1,1′-biphenyl]-3-yl)amino)quinazolin-6-yl)oxy)piperidin-1-yl)prop-2-en-1-one] | ≤ 150 | 150 to 1000
16 |  | ≤ 150 | C=CC(=O)N1CCC(Oc2cc3c(Nc4cc(-c5cccc(NC(C)=O)c5)ccc4OC)ncnc3cc2OC)CC1 [Example 224, N-(3′-((6-((1-acryloyl-piperidin-4-yl)oxy)-7-methoxy-quinazolin-4-yl)amino)-4′-methoxy-[1,1′-biphenyl]-3-yl)acetamide] | ≤ 150 | ≤ 150
17 |  | 150 to 1000 | C=CC(=O)N1CCC(Oc2cc3c(Nc4cc(-c5cccc(N6CCC6)c5)ccc4OC)ncnc3cc2OC)CC1 [Example 225, 1-(4-((4-((3′-(azetidin-1-yl)-4-methoxy-[1,1′-biphenyl]-3-yl)amino)-7-methoxy-quinazolin-6-yl)oxy)piperidin-1-yl)prop-2-en-1-one] | ≤ 150 | > 1000
18 |  | ≤ 150 | C=CC(=O)N1CCC(Oc2cc3c(Nc4cc(-c5ccc(F)c(NC(C)=O)c5)ccc4OC)ncnc3cc2OC)CC1 [Example 226, N-(3′-((6-((1-acryloyl-piperidin-4-yl)oxy)-7-methoxy-quinazolin-4-yl)mino)-4-fluoro-4′-methoxy-[1,1'-biphenyl]-3-yl)acetamide] | ≤ 150 | > 1000
19 |  | ≤ 150 | C=CC(=O)N1CCC(Oc2cc3c(Nc4cc(-c5ccc(F)c(N(C)C)c5)ccc4OC)ncnc3cc2OC)CC1 [Example 229, 1-(4-((4-((3′-(dimethylamino)-4′-fluoro-4-methoxy-[1,1′-biphenyl]-3-yl)amino)-7-methoxy-quinazolin-6-yl)oxy)piperidin-1-yl)prop-2-en-1-one] | ≤ 150 | 150 to 1000
20 |  | ≤ 150 | C=CC(=O)N1CCC(Nc2cc3c(Nc4cc(-c5ccc(F)cc5F)ccc4OC)ncnc3cc2OCC)CC1 [Example 301, 1-(4-((4-((2′,4′-difluoro-4-methoxy-[1,1′-biphenyl]-3-yl)amino)-7-ethoxyquinazolin-6-yl)amino)piperidin-1-yl)prop-2-en-1-one] | ≤ 150 | ≤ 150
